Reference: PubChem BioAssay (NCI)
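96-well plates; 48 h exposure; 5 concentrations. Endpoints by linear interpolation between flanking doses. Not reached: highest tested concentration assigned. GI50 = concentration required for 50% inhibition of growth. TGI: concentration producing complete growth inhibition.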

How the values were obtained:
Assay in all cases: NCI anticancer screen, dose series, 48 h
OVCAR-8 ovarian = test system: OVCAR-8 ovarian
RPMI-8226 leukemia = test system: RPMI-8226 leukemia
HL-60(TB) leukemia = test system: HL-60(TB) leukemia
PC-3 prostate = test system: PC-3 prostate
CAKI-1 renal = test system: CAKI-1 renal
U251 CNS = test system: U251 CNS
MALME-3M melanoma = test system: MALME-3M melanoma
OVCAR-3 ovarian = test system: OVCAR-3 ovarian
SK-MEL-5 melanoma = test system: SK-MEL-5 melanoma
SN12C renal = test system: SN12C renal
TK-10 renal = test system: TK-10 renal
SR leukemia = test system: SR leukemia
MOLT-4 leukemia = test system: MOLT-4 leukemia
RXF 393 renal = test system: RXF 393 renal
NCI-H522 lung = test system: NCI-H522 lung
LOX IMVI melanoma = test system: LOX IMVI melanoma
SK-MEL-2 melanoma = test system: SK-MEL-2 melanoma
UO-31 renal = test system: UO-31 renal
MCF7 breast = test system: MCF7 breast
SK-OV-3 ovarian = test system: SK-OV-3 ovarian
IGROV1 ovarian = test system: IGROV1 ovarian
HCC-2998 colon = test system: HCC-2998 colon
SF-268 CNS = test system: SF-268 CNS
EKVX NSCLC = test system: EKVX NSCLC
A498 renal = test system: A498 renal
SF-539 CNS = test system: SF-539 CNS
BT-549 breast = test system: BT-549 breast
HOP-92 NSCLC = test system: HOP-92 NSCLC
HT29 colon = test system: HT29 colon
COLO 205 colon = test system: COLO 205 colon
NCI-H460 lung = test system: NCI-H460 lung
A549 NSCLC = test system: A549 NSCLC
K-562 leukemia = test system: K-562 leukemia
HOP-62 NSCLC = test system: HOP-62 NSCLC
SK-MEL-28 melanoma = test system: SK-MEL-28 melanoma
SNB-75 CNS = test system: SNB-75 CNS
OVCAR-4 ovarian = test system: OVCAR-4 ovarian
786-0 renal = test system: 786-0 renal
UACC-257 melanoma = test system: UACC-257 melanoma
SNB-19 CNS = test system: SNB-19 CNS
DU-145 prostate = test system: DU-145 prostate
KM12 colon = test system: KM12 colon
NCI/ADR-RES ovarian = test system: NCI/ADR-RES ovarian
ACHN renal = test system: ACHN renal
M14 melanoma = test system: M14 melanoma
HS 578T breast = test system: HS 578T breast
UACC-62 melanoma = test system: UACC-62 melanoma
HCT-116 colon = test system: HCT-116 colon
SF-295 CNS = test system: SF-295 CNS
NCI-H226 lung = test system: NCI-H226 lung
HCT-15 colon = test system: HCT-15 colon
SW-620 colon = test system: SW-620 colon
OVCAR-5 ovarian = test system: OVCAR-5 ovarian
MDA-MB-231 breast = test system: MDA-MB-231 breast
MDA-MB-435 = test system: MDA-MB-435
T-47D breast = test system: T-47D breast
CCRF-CEM leukemia = test system: CCRF-CEM leukemia

Cc1cccc2sc(/N=C(\N)C(Br)Br)nc12
GI50 (OVCAR-8 ovarian): 2110 nM
TGI (OVCAR-8 ovarian): 7270 nM
GI50 (RPMI-8226 leukemia): 2120 nM
TGI (RPMI-8226 leukemia): 9510 nM
GI50 (HL-60(TB) leukemia): 1830 nM
TGI (HL-60(TB) leukemia): 7130 nM
GI50 (PC-3 prostate): 1930 nM
TGI (PC-3 prostate): 6800 nM
GI50 (CAKI-1 renal): 820 nM
TGI (CAKI-1 renal): 2100 nM
GI50 (U251 CNS): 1310 nM
TGI (U251 CNS): 3300 nM
GI50 (MALME-3M melanoma): 1640 nM
TGI (MALME-3M melanoma): 3660 nM
GI50 (OVCAR-3 ovarian): 1680 nM
TGI (OVCAR-3 ovarian): 4380 nM
GI50 (SK-MEL-5 melanoma): 3030 nM
TGI (SK-MEL-5 melanoma): 9420 nM
GI50 (SN12C renal): 1680 nM
TGI (SN12C renal): 3920 nM
GI50 (TK-10 renal): 4300 nM
TGI (TK-10 renal): 15500 nM
GI50 (SR leukemia): 2010 nM
TGI (SR leukemia): 7450 nM
GI50 (MOLT-4 leukemia): 1720 nM
TGI (MOLT-4 leukemia): 11500 nM
GI50 (RXF 393 renal): 1320 nM
TGI (RXF 393 renal): 3320 nM
GI50 (NCI-H522 lung): 1540 nM
TGI (NCI-H522 lung): 3080 nM
GI50 (LOX IMVI melanoma): 158 nM
TGI (LOX IMVI melanoma): 345 nM
GI50 (SK-MEL-2 melanoma): 2450 nM
TGI (SK-MEL-2 melanoma): 7500 nM
GI50 (UO-31 renal): 1230 nM
TGI (UO-31 renal): 7530 nM
GI50 (MCF7 breast): 819 nM
TGI (MCF7 breast): 3800 nM
GI50 (SK-OV-3 ovarian): 4000 nM
TGI (SK-OV-3 ovarian): 16000 nM
GI50 (IGROV1 ovarian): 1620 nM
TGI (IGROV1 ovarian): 3750 nM
GI50 (HCC-2998 colon): 1590 nM
TGI (HCC-2998 colon): 3450 nM
GI50 (SF-268 CNS): 2240 nM
TGI (SF-268 CNS): 13100 nM
GI50 (EKVX NSCLC): 3610 nM
TGI (EKVX NSCLC): 14200 nM
GI50 (A498 renal): 12500 nM
TGI (A498 renal): 25100 nM
GI50 (SF-539 CNS): 1420 nM
TGI (SF-539 CNS): 3340 nM
GI50 (BT-549 breast): 1660 nM
TGI (BT-549 breast): 3550 nM
GI50 (HOP-92 NSCLC): 1540 nM
TGI (HOP-92 NSCLC): 6390 nM
GI50 (HT29 colon): 1180 nM
TGI (HT29 colon): 3530 nM
GI50 (COLO 205 colon): 1250 nM
TGI (COLO 205 colon): 2930 nM
GI50 (NCI-H460 lung): 654 nM
TGI (NCI-H460 lung): 2590 nM
GI50 (A549 NSCLC): 2730 nM
TGI (A549 NSCLC): 10400 nM
GI50 (K-562 leukemia): 1070 nM
TGI (K-562 leukemia): 12800 nM
GI50 (HOP-62 NSCLC): 2700 nM
TGI (HOP-62 NSCLC): 12100 nM
GI50 (SK-MEL-28 melanoma): 1910 nM
TGI (SK-MEL-28 melanoma): 5260 nM
GI50 (SNB-75 CNS): 2010 nM
TGI (SNB-75 CNS): 10600 nM
GI50 (OVCAR-4 ovarian): 2000 nM
TGI (OVCAR-4 ovarian): 6500 nM
GI50 (786-0 renal): 1810 nM
TGI (786-0 renal): 4140 nM
GI50 (UACC-257 melanoma): 2900 nM
TGI (UACC-257 melanoma): 11500 nM
GI50 (SNB-19 CNS): 3230 nM
TGI (SNB-19 CNS): 15100 nM
GI50 (DU-145 prostate): 1940 nM
TGI (DU-145 prostate): 11100 nM
GI50 (KM12 colon): 1990 nM
TGI (KM12 colon): 11800 nM
GI50 (NCI/ADR-RES ovarian): 1670 nM
TGI (NCI/ADR-RES ovarian): 7100 nM
GI50 (ACHN renal): 1070 nM
TGI (ACHN renal): 3860 nM
GI50 (M14 melanoma): 1390 nM
TGI (M14 melanoma): 3710 nM
GI50 (HS 578T breast): 2320 nM
TGI (HS 578T breast): 9790 nM
GI50 (UACC-62 melanoma): 2540 nM
TGI (UACC-62 melanoma): 12000 nM
GI50 (HCT-116 colon): 520 nM
TGI (HCT-116 colon): 1990 nM
GI50 (SF-295 CNS): 3650 nM
TGI (SF-295 CNS): 15500 nM
GI50 (NCI-H226 lung): 1820 nM
TGI (NCI-H226 lung): 4130 nM
GI50 (HCT-15 colon): 1250 nM
TGI (HCT-15 colon): 6810 nM
GI50 (SW-620 colon): 659 nM
TGI (SW-620 colon): 2410 nM
GI50 (OVCAR-5 ovarian): 2520 nM
TGI (OVCAR-5 ovarian): 7500 nM
GI50 (MDA-MB-231 breast): 2110 nM
TGI (MDA-MB-231 breast): 7820 nM
GI50 (MDA-MB-435): 1330 nM
TGI (MDA-MB-435): 2920 nM
GI50 (T-47D breast): 2540 nM
TGI (T-47D breast): 12800 nM
GI50 (CCRF-CEM leukemia): 2670 nM
TGI (CCRF-CEM leukemia): 8120 nM
